Measured values taken from PMC7531004, “Discovery of gramicidin A analogues with altered activities by multidimensional screening of a one-bead-one-compound library” (Nature Communications, 2020).
Values joined by “and” are separate entries in the source; they are usually repeats but may differ in a detail not shown here. Identical values can stand only once. Like-named read-outs stand apart in the source and are kept apart here. Where a SMILES comes first, the peptide text is derived from it. [ ]: non-standard residue; d: D form. The star is where a group is joined. NHCH2CH2OH = OCCN*; For = O=C*

How the values were obtained:
[1] = test system: MSSA1 (methicillin-susceptible Staphylococcus aureus); format: cell-based
Description: Evaluation of antibacterial spectra of purified peptides. The MIC assay was performed according to the Clinical and Laboratory Standards Institute protocols. The antibacterial activities of the purified peptides A1, B01–B04, B11–B13, B21, and B22 were measured using the broth microdilution method. 6 Serial dilutions of the peptides were prepared in cation adjusted Mueller Hinton Broth. Each dilution (100 µL) was dispensed to each well of the round-bottom plate to obtain final concentrations ranging from 64 µg/mL to 0.00024 µg/mL. Bacteria were grown at 37 °C overnight on Tryptic Soy Broth or Mueller Hinton Broth agar plates.
The bacterial colonies were suspended in 0.9% saline to obtain OD 625 of 0.08–0.13 using a spectrophotometer UV-1280 (Shimadzu). The resultant suspension was diluted with cation adjusted Mueller Hinton Broth (1/20). The resultant mixture (10 .0 µL) was inoculated to each well of the plates (approximately 5 × 10^4 CFU/well), mixed, and incubated at 37 °C for 18–24 h. The MIC value was determined as the minimum concentration that inhibited growth of bacteria. For Streptococcus species, cation adjusted Mueller Hinton Broth supplemented with 5% laked horse blood was used. […]

[2] = Membrane disruption assay of purified peptides (carboxyfluorescein leakage); format: biochemical; set-up: key: % lysis; Triton X-100 = 100%, DMSO = 0%; details: three replicate lines
Description: Membrane disruption assay of purified peptides. 5(6)-Carboxyfluorescein (CF)-encapsulated large […]
through Nuclepore polycarbonate filters mounted in the mini-extruder apparatus. A solution of egg yolk phosphatidylcholine (EYPC, 22.0 mg, 28.9 µmol) in CHCl3 (225 µL) and egg yolk phosphatidylglycerol (1.2 0 […]
mM HEPES, 100 mM NaCl, 20 mM CF) by sonication. After five -times freeze-thaw cycles, the lipid […]
concentration of the resultant CF -encapsulated LUV suspension was deduced from the phosphatidylcholine concentration determined by using Phospholipid C -Test Wako. The lipid concentration of the LUV […]
as 5-fold serial dilution. The solution of peptide (2.0 µL) and the CF-encapsulated LUV suspension (200 […]
The resultant suspension was incubated at room temperature for 30 min. The fluorescence (Ex. 490 nm/Em. 517 nm) of each well was measured on Gemini EM microplate reader. Triton X-100/H2O (5/95, 3.0 µL), DMSO (2.0 µL), and the LUV suspension were mixed in each plate to determine 100% lysis. […]
was used to determine 0% lysis. The membrane disruption activities of tested peptides ( I) were normalized against 100% lysis by Triton X-100 (Imax) and 0% lysis by DMSO ( I0) according to Supplementary Equation 2 , where Ix is the fluorescence intensity.
The membrane disruption activities of the purified peptides were plotted as means of three replicates (Supplementary Figure 1).

[3] = H+/Na+ transport assay of purified peptides; details: for Supplementary Figure 5 dose-response value (H+/Na+ transport): three replicate lines
[4] = test system: P388 mouse leukemia cell line
Description: Second, we examined the cytotoxicity toward mammalian cancer cells and hemolytic activity of 1. […] Hemolytic activity was evaluated by monitoring hemoglobin leakage from rabbit red blood cells as a consequence of membrane damage. The concentration of 1 required to cause 10% hemoglobin leakage (HC10) was 160 nM. Thus, the P388 cytotoxicity of 1 was 28-fold more sensitive than its hemolytic activity.
Mammalian cytotoxicity assay of purified peptides.
B22 was diluted with the growth medium with 2% DMSO to various concentrations as 5-fold serial dilution.
The collected cells were resuspended into
the growth medium at 2 × 10^4 cells/mL. Aliquots of the former medium (2% DMSO, 100 µL) containing
peptides and the latter medium containing P388 cells (100 µL) were mixed in a 96-well cell culture plate
(TR5003, TrueLine). The final concentration of P388 cells and DMSO were 1 × 10^4 cells/mL and 1%,
respectively. […]
were determined by WST -1 assay. A solution of 1-methoxy PMS and WST-1 in the growth medium
(1-methoxy PMS 0.70 mg/mL in Milli-Q/WST-1 3.6 mg/mL in pH 7.4 HEPES buffer = 1/9) was added to
each well of the plate (20.0 µL/well). The cells were incubated for 4 h under atmosphere of 5% CO 2 at
37 °C. The absorbance of each well at 415 nm was measured using a Benchmark microplate reader
(Bio-Rad) or Thermo Scientifi c Multiskan GO (Thermo Fisher Scientific). The cytotoxicities of the purified
peptides were evaluated as IC 50 (nM) by means of three replicates. Sigmoidal curve fittings were performed

[5] = read-out: EC50, H+/Na+ transport assay, 1st experiment
[6] = read-out: EC50, H+/Na+ transport assay, 2nd experiment
[7] = read-out: EC50, H+/Na+ transport assay, 3rd experiment
[8] = read-out: H+/Na+ transport activity EC50, EYPC/EYPG (19:1) LUVs
[9] = read-out: H+/Na+ transport activity/EC50, mean ± SD of three independent experiments

| SMILES | antibacterial activity/MIC [1] | Supplementary Figure 1 dose-response value ([2]; concentration 0.000512 nM) | Supplementary Figure 1 dose-response value ([2]; concentration 0.00256 nM) | Supplementary Figure 1 dose-response value ([2]; concentration 0.0128 nM) | Supplementary Figure 1 dose-response value ([2]; concentration 0.064 nM) | Supplementary Figure 1 dose-response value ([2]; concentration 0.32 nM) | Supplementary Figure 1 dose-response value ([2]; concentration 1.6 nM) | Supplementary Figure 1 dose-response value ([2]; concentration 8 nM) | Supplementary Figure 1 dose-response value ([2]; concentration 40 nM) | Supplementary Figure 1 dose-response value ([2]; concentration 200 nM) | Supplementary Figure 1 dose-response value ([2]; concentration 1000 nM) | Supplementary Figure 1 dose-response value ([2]; concentration 5000 nM) | Supplementary Figure 5 dose-response value (H+/Na+ transport) ([3]; concentration 0.000512 nM) | Supplementary Figure 5 dose-response value (H+/Na+ transport) ([3]; concentration 0.00256 nM) | Supplementary Figure 5 dose-response value (H+/Na+ transport) ([3]; concentration 0.0128 nM) | Supplementary Figure 5 dose-response value (H+/Na+ transport) ([3]; concentration 0.064 nM) | Supplementary Figure 5 dose-response value (H+/Na+ transport) ([3]; concentration 0.32 nM) | Supplementary Figure 5 dose-response value (H+/Na+ transport) ([3]; concentration 1.6 nM) | Supplementary Figure 5 dose-response value (H+/Na+ transport) ([3]; concentration 8 nM) | Supplementary Figure 5 dose-response value (H+/Na+ transport) ([3]; concentration 40 nM) | other results |
| --- | --- | --- | --- | --- | --- | --- | --- | --- | --- | --- | --- | --- | --- | --- | --- | --- | --- | --- | --- | --- | --- |
| CC(C)C[C@@H](NC(=O)[C@H](C)NC(=O)CNC(=O)[C@@H](NC=O)C(C)C)C(=O)N[C@@H](C)C(=O)N[C@@H](C(=O)N[C@H](C(=O)N[C@@H](C(=O)N[C@@H](Cc1c[nH]c2ccccc12)C(=O)N[C@H](CC(C)C)C(=O)N[C@@H](Cc1c[nH]c2ccccc12)C(=O)N[C@H](CC(C)C)C(=O)N[C@@H](Cc1c[nH]c2ccccc12)C(=O)N[C@H](CC(C)C)C(=O)N[C@@H](Cc1c[nH]c2ccccc12)C(=O)NCCO)[C@H](C)O)C(C)C)C(C)C [B13] (For-VGA[dL]A[dV]V[dT]W[dL]W[dL]W[dL]W-NHCH2CH2OH) | 8 µg/mL | 12.6222 and 8.681 and 14.1878 | 5.0387 and -8.856 and 0.4118 | 17.1111 and 10.8226 and 6.743 | 2.158 and 0.4656 and 8.156 | 0.4983 and 9.035 and 4.354 | 8.628 and -5.518 and 5.634 | 16.7483 and 16.868 and 17.3839 | 8.5256 and 14.4302 and 19.7817 | 29.195 and 23.7339 and 11.0358 | 32.784 and 37.4398 and 33.6736 | 66.9777 and 54.6664 and 50.7322 | 3.017 and 1.952 and 2.608 | 3.102 and 3.766 and 3.197 | 2.802 and 3.448 and 5.087 | 7.573 and 8.7038 and 6.571 | 17.1662 and 17.5754 and 16.2478 | 34.5009 and 38.0687 and 36.068 | 62.5081 and 62.2715 and 60.6584 | 69.7421 and 65.8817 and 68.9295 | Supplementary Figure 5 dose-response value (H+/Na+ transport) ([3]; concentration 200 nM): 70.9489 and 69.9169 and 66.3002; Supplementary Figure 5 dose-response value (H+/Na+ transport) ([3]; concentration 1000 nM): 70.4102 and 68.4527 and 68.0392; Supplementary Figure 5 dose-response value (H+/Na+ transport) ([3]; concentration 5000 nM): 77.0905 and 71.4732 and 77.0208; EC50 [3, 5]: 1.54 nM; EC50 [3, 6]: 1.6 nM; EC50 [3, 7]: 1.51 nM; EC50 [3, 8]: 1.6 nM; EC50 [3, 9]: 1.55 ± 0.04 nM; IC50 ([4]; 2 h): > 1000 nM |
| CC(C)C[C@@H](NC(=O)[C@H](C)NC(=O)CNC(=O)[C@@H](NC=O)C(C)C)C(=O)N[C@@H](C)C(=O)N[C@@H](C(=O)N[C@H](C(=O)N[C@@H](C(=O)N[C@@H](Cc1c[nH]c2ccccc12)C(=O)N[C@H](CC(C)C)C(=O)N[C@@H](Cc1c[nH]c2ccccc12)C(=O)N[C@H](CC(C)C)C(=O)N[C@@H](Cc1c[nH]c2ccccc12)C(=O)N[C@@H](C(=O)N[C@@H](Cc1c[nH]c2ccccc12)C(=O)NCCO)C(C)C)[C@H](C)O)C(C)C)C(C)C [B12] (For-VGA[dL]A[dV]V[dT]W[dL]W[dL]W[dV]W-NHCH2CH2OH) | 4 µg/mL | 14.3151 and 14.218 and 7.531 | 2.34 and -6.416 and 3.105 | 5.88 and 8.131 and 3.94 | 3.705 and 7.973 and 3.229 | 3.808 and 6.955 and 6.51 | 8.996 and 0.3041 and 5.919 | 7.9647 and 15.5867 and 17.3879 | 5.306 and 8.903 and 13.6255 | 28.0368 and 20.6509 and 3.758 | 25.4415 and 27.5334 and 28.0661 | 41.4626 and 58.8643 and 47.4572 | 2.818 and 0.0271 and -0.589 | 3.476 and 5.315 and 5.077 | 4.761 and 4.753 and 4.729 | 8.321 and 5.0339 and 7.369 | 16.8579 and 20.7391 and 16.934 | 35.2545 and 35.7349 and 38.3822 | 63.7974 and 60.2094 and 62.8038 | 71.4784 and 67.4712 and 69.6703 | Supplementary Figure 5 dose-response value (H+/Na+ transport) ([3]; concentration 200 nM): 72.1513 and 73.1412 and 71.1696; Supplementary Figure 5 dose-response value (H+/Na+ transport) ([3]; concentration 1000 nM): 74.8337 and 73.0658 and 70.6415; Supplementary Figure 5 dose-response value (H+/Na+ transport) ([3]; concentration 5000 nM): 78.5724 and 78.4083 and 76.7501; EC50 [3, 5]: 1.66 nM; EC50 [3, 6]: 0.838 nM; EC50 [3, 7]: 2.98 nM; EC50 [3, 8]: 1.8 nM; EC50 [3, 9]: 1.83 ± 1.08 nM; weaker cytotoxicity than 1 [4]: 70 fold |
